Results reported in article PMC8744835, “Sterically Hindered Quaternary Phosphonium Salts (QPSs): Antimicrobial Activity and Hemolytic and Cytotoxic Properties” (International Journal of Molecular Sciences, 2021).
Converted amounts (≈) assume the structure as drawn.

Experiments:
[1] = tested on: Escherichia coli ATCC 25922; experiment: Antimicrobial activity, serial dilution technique in Mueller–Hinton Broth 2; type: cell-based; conditions: average of three ± SD, - means non-active
[2] = tested on: methicillin-resistant S. aureus MRSA-1; experiment: as above; type: cell-based, Staphylococcus aureus; conditions: - means non-active
Procedure: (§1) The synthesized compounds were tested for antimicrobial activity against a number of Gram-positive bacteria, Staphylococcus aureus (Sa), Bacillus cereus (Bc) and Enterococcus faecalis (Ef), and Gram-negative bacteria, Escherichia coli (Ec) and Pseudomonas aeruginosa (Pa), including the methicillin-resistant strains S. aureus MRSA-1 (resistant to fluoroquinolones and beta-lactams) and MRSA-2 (resistant to beta-lactams). The methicillin-resistant strains S. aureus were transferred by the Republican Clinical Hospital of the Republic of Tatarstan (Kazan). The fungicidal activity against Candida albicans (Ca) and Trichophyton mentagrophytes var. gypseum (Tm) was studied. These pathogens were chosen because they are the most widespread in the food industry and the healthcare system.
(§2) The antimicrobial activity of the QPSs was determined using the serial dilution technique in Mueller–Hinton Broth 2. The cultures used for testing included the Gram-positive bacteria Staphylococcus aureus ATCC 6538P FDA 209P, Enterococcus faecalis ATCC 2921 and Bacillus cereus ATCC 10702 NCTC 8035, the Gram-negative bacteria Escherichia coli ATCC 25922 and Pseudomonas aeruginosa ATCC 9027, and the fungi Trichophyton mentagrophytes var. gypseum 1773 and Candida albicans ATCC 10231; methicillin-resistant strains of S. aureus MRSA were obtained from hospital patients with chronic tonsillitis (MRSA-1) and sinusitis (MRSA-2) in the Republican Clinical Hospital (Kazan, Russia). […] The bacterial load was 3.0 × 10^5 cfu/mL. The results were recorded every 24 h for 5 days. The cultures were incubated at 37 °C. The experiment was repeated three times. […] The minimum inhibitory concentration (MIC) was defined as the minimum concentration of a compound that inhibits the growth of the corresponding test micro-organism. The growth of bacteria as well as the absence of growth due to the bacteriostatic action of a compound was recorded.

[3] = tested on: methicillin-resistant S. aureus MRSA-2; experiment: as above; type: cell-based, Staphylococcus aureus; conditions: - means non-active
Procedure: as §1, §2

[4] = tested on: Trichophyton mentagrophytes var. gypseum 1773; experiment: Fungicidal activity, serial dilution technique; type: cell-based; conditions: for Minimum Bactericidal and Fungicidal Concentration (MBC, MFC), Tm / Minimum Inhibitory Concentration (MIC), Tm: average of three ± SD, - means non-active
Procedure: as §1
(§3) The antimicrobial activity of the QPSs was determined using the serial dilution technique in Mueller–Hinton Broth 2. The cultures used for testing included the Gram-positive bacteria Staphylococcus aureus ATCC 6538P FDA 209P, Enterococcus faecalis ATCC 2921 and Bacillus cereus ATCC 10702 NCTC 8035, the Gram-negative bacteria Escherichia coli ATCC 25922 and Pseudomonas aeruginosa ATCC 9027, and the fungi Trichophyton mentagrophytes var. gypseum 1773 and Candida albicans ATCC 10231; methicillin-resistant strains of S. aureus MRSA were obtained from hospital patients with chronic tonsillitis (MRSA-1) and sinusitis (MRSA-2) in the Republican Clinical Hospital (Kazan, Russia). Ciprofloxacin and ketoconazole were purchased from Sigma-Aldrich. The bacterial load was 3.0 × 10^5 cfu/mL. The results were recorded every 24 h for 5 days. The cultures were incubated at 37 °C. The experiment was repeated three times. […] The minimum inhibitory concentration (MIC) was defined as the minimum concentration of a compound that inhibits the growth of the corresponding test micro-organism. The growth of bacteria as well as the absence of growth due to the bacteriostatic action of a compound was recorded.

[5] = tested on: Candida albicans ATCC 10231; experiment: Fungicidal activity, serial dilution technique; type: cell-based; conditions: average of three ± SD, - means non-active; for MBC / MFC: read-out: Minimum Bactericidal and Fungicidal Concentration (MBC, MFC), Ca
Procedure: as §1, §3

[6] = tested on: Escherichia coli ATCC 25922; experiment: Antimicrobial activity, serial dilution technique in Mueller–Hinton Broth 2; type: cell-based; conditions: Ec; average of three ± SD; - means non-active
Procedure: as §1, §2

[7] = tested on: Enterococcus faecalis ATCC 2921; experiment: as above; type: cell-based; conditions: average of three ± SD, - means non-active
Procedure: as §1, §2

[8] = tested on: Bacillus cereus ATCC 10702 NCTC 8035; experiment: as above; type: cell-based; conditions: average of three ± SD, - means non-active
Procedure: as §1, §2

[9] = tested on: Pseudomonas aeruginosa ATCC 9027; experiment: as above; type: cell-based; conditions: average of three ± SD, - means non-active
Procedure: as §1, §2

[10] = tested on: Staphylococcus aureus ATCC 6538P FDA 209P; experiment: as above; type: cell-based; conditions: average of three ± SD, - means non-active
Procedure: as §1, §2

[11] = MRSA-1 (resistant to fluoroquinolones and beta-lactams)
[12] = MRSA-2 (resistant to beta-lactams)
[13] = Candida albicans, ATCC10231, Ca
[14] = Trichophyton mentagrophytes, read-out: Minimum Bactericidal and Fungicidal Concentration (MBC, MFC), Tm

| Structure (SMILES) | Minimum Inhibitory Concentration (MIC), MRSA-1 [2, 11] [µg/mL] | Minimum Inhibitory Concentration (MIC), MRSA-2 [3, 12] [µg/mL] | Minimum Bactericidal and Fungicidal Concentration (MBC, MFC), MRSA-2 ([3]; MRSA-2) [µg/mL] | Minimum Bactericidal and Fungicidal Concentration (MBC, MFC), Tm [4] [µg/mL] | Minimum Inhibitory Concentration (MIC), Tm [4] [µg/mL] | Minimum Inhibitory Concentration (MIC), Ca ([5]; Ca) [µg/mL] | Minimum Inhibitory Concentration (MIC), Ec [6] [µg/mL] | Minimum Bactericidal and Fungicidal Concentration (MBC, MFC), Ef [7] [µg/mL] | Minimum Inhibitory Concentration (MIC), Ef [7] [µg/mL] | Minimum Bactericidal and Fungicidal Concentration (MBC, MFC), Bc [8] [µg/mL] | Minimum Inhibitory Concentration (MIC), Bc [8] [µg/mL] | Minimum Bactericidal and Fungicidal Concentration (MBC, MFC), Pa [9] [µg/mL] | Minimum Inhibitory Concentration (MIC), Pa [9] [µg/mL] | Minimum Inhibitory Concentration (MIC), Sa [10] [µg/mL] | MBC [5, 13] [µg/mL] | MFC [5, 13] [µg/mL] | also measured |
| --- | --- | --- | --- | --- | --- | --- | --- | --- | --- | --- | --- | --- | --- | --- | --- | --- | --- |
| CCCCCCCCCCCC[P+](C(C)(C)C)(C(C)(C)C)C(C)(C)C [Compound 12b] | 1.9 ± 0.1 | 0.5 ± 0.04 | 31.3 ± 2.7 | 62.5 ± 5.2 | 31.3 ± 2.4 | 15.6 ± 1.3 | 15.6 ± 1.3 | 15.6 ± 1.3 | 1.9 ± 0.02 | 62.5 ± 5.5 | 1.9 ± 0.01 | 125 ± 10 | 125 ± 11 | 0.5 ± 0.03 | – | – | Minimum Bactericidal and Fungicidal Concentration (MBC, MFC), Ec ([1]; Ec): 15.6 ± 1.2 µg/mL; Minimum Bactericidal and Fungicidal Concentration (MBC, MFC), Ca ([5]; Ca): 15.6 ± 1.3 µg/mL |
| CCCCCCCCCCCCCCCC[P+](C(C)(C)C)(C(C)(C)C)C(C)(C)C [Compound 16a] | – | – | – | – | – | 1.9 ± 0.1 | 0.9 ± 0.07 | – | – | – | – | – | 31.3 ± 2.7 | – | 3.9 ± 0.3 | – | MBC ([1]; Escherichia coli, ATCC25922, Ec, read-out: Minimum Bactericidal and Fungicidal Concentration (MBC, MFC), Ec): 1.9 ± 0.1 µg/mL; MIC ([2]; Staphylococcus aureus, MRSA, MRSA-1 (resistant to fluoroquinolones and beta-lactams), read-out: Minimum Inhibitory Concentration (MIC), MRSA-1): 1.9 ± 0.1 µg/mL; MBC ([2]; Staphylococcus aureus, MRSA, MRSA-1, read-out: Minimum Bactericidal and Fungicidal Concentration (MBC, MFC), MRSA-1): 7.8 ± 0.6 µg/mL; MIC ([3]; Staphylococcus aureus, MRSA, MRSA-2 (resistant to beta-lactams), read-out: Minimum Inhibitory Concentration (MIC), MRSA-2): 0.5 ± 0.03 µg/mL; MBC ([3]; Staphylococcus aureus, MRSA, MRSA-2, read-out: Minimum Bactericidal and Fungicidal Concentration (MBC, MFC), MRSA-2): 7.8 ± 0.7 µg/mL; MBC ([7]; Enterococcus faecalis, ATCC2921, Ef, read-out: Minimum Bactericidal and Fungicidal Concentration (MBC, MFC), Ef): 0.5 ± 0.03 µg/mL; MIC ([7]; Enterococcus faecalis, ATCC2921, Ef, read-out: Minimum Inhibitory Concentration (MIC), Ef): 0.5 ± 0.03 µg/mL; MBC ([8]; Bacillus cereus, Bc, read-out: Minimum Bactericidal and Fungicidal Concentration (MBC, MFC), Bc): 31.3 ± 2.2 µg/mL; MIC ([8]; Bacillus cereus, Bc, read-out: Minimum Inhibitory Concentration (MIC), Bc): 1.9 ± 0.1 µg/mL; MBC ([9]; Pseudomonas aeruginosa, ATCC9027, Pa, read-out: Minimum Bactericidal and Fungicidal Concentration (MBC, MFC), Pa): 125 ± 9 µg/mL; MBC ([10]; Staphylococcus aureus, Sa, read-out: Minimum Bactericidal and Fungicidal Concentration (MBC, MFC), Sa): 0.5 ± 0.03 µg/mL; MIC ([10]; Staphylococcus aureus, Sa, read-out: Minimum Inhibitory Concentration (MIC), Sa): 0.5 ± 0.04 µg/mL |
| CCCCCCCCCCCCCCCCC[P+](C(C)(C)C)(C(C)(C)C)C(C)(C)C [Compound 17b] | 1.9 ± 0.1 | 1.9 ± 0.1 | 1.9 ± 0.1 | 125 ± 11 | 125 ± 10 | 1.9 ± 0.1 | 15.6 ± 1.2 | 3.9 ± 0.2 | 0.5 ± 0.03 | 15.6 ± 1.3 | 1.9 ± 0.1 | 15.6 ± 1.3 | 7.8 ± 0.6 | 0.5 ± 0.04 | – | 7.8 ± 0.7 | Minimum Bactericidal and Fungicidal Concentration (MBC, MFC), MRSA-1 ([2]; MRSA-1): 1.9 ± 0.1 µg/mL; Minimum Bactericidal and Fungicidal Concentration (MBC, MFC), Sa [10]: 0.5 ± 0.04 µg/mL |
| CC(=O)N1CCN(c2ccc(OCC3COC(Cn4ccnc4)(c4ccc(Cl)cc4Cl)O3)cc2)CC1 (stereo not drawn) [Ketoconazole, reference compound] | – | – | – | – | 3.9 ± 0.2 | 3.9 ± 0.3 | – | – | – | – | – | – | – | – | 3.9 ± 0.3 (≈ 7.34 µM) | 3.9 ± 0.3 (≈ 7.34 µM) | MBC [4, 14]: 3.9 ± 0.2 µg/mL (≈ 7.34 µM); MFC [4, 14]: 3.9 ± 0.2 µg/mL (≈ 7.34 µM); MIC ([4]; Trichophyton mentagrophytes, read-out: Minimum Inhibitory Concentration (MIC), Tm): 3.9 ± 0.2 µg/mL (≈ 7.34 µM); MIC ([5]; Candida albicans, ATCC10231, Ca, read-out: Minimum Inhibitory Concentration (MIC), Ca): 3.9 ± 0.3 µg/mL (≈ 7.34 µM) |
